Experimental findings from patent US20220135941A1, “COMPOSITIONS AND METHODS FOR LONG TERM CULTURE OF HEPATOCYTES” (Peking University, priority 2019, published 2022) are described below.

Test [1] deals with primary human hepatocytes (PHHs). The protocol: (§1) The present study was approved by the Research Ethics Committee of China-Japan Friendship Hospital (Ethical approval No: 2009-50). PHHs were obtained from human donors. Human hepatocytes were isolated from discarded human livers. A modified two-step collagenase perfusion procedure was used to isolate primary human hepatocytes from these tissues (OOtani, et al., Nat Med., 15:701-706 (2009)). Briefly, the liver tissue was perfused with PB (perfusion buffer: 0.15 M NaCl; 5 mM KCl; 25 mM NaHCO3; 5 mM Glucose; 20 mM Hepes) to remove remaining blood cells, followed by PBE (perfusion buffer plus 1 mM EDTA) perfusion. The tissue was then perfused with PBC (perfusion buffer plus 1 mg/mL collagenase type IV, 5 mM CaCl2, Gibco). All the buffers were prewarmed to 37° C. prior to the isolation process. The hepatocytes suspension was collected and washed with Williams' Medium E (Gibco), then filtered through a 40 μm Nylon cell strainer (Falcon). The isolated hepatocytes were then seeded on collagen type I-coated (Rat tail collagen type I, Gibco) plates at a density of 2.5×10^5/cm2.
(§2) Serum-free medium used for hepatocyte culture (Null): Williams' medium E containing B27 (50×, Gibco), Glutmax (Gibco) and Pen Strep (Gibco). DMSO vehicle control: Null supplemented with nearly 0.035% DMSO. […] 24 h-Cultured hepatocytes were cultured in commercial medium HCM (Lonza).
Total RNA was isolated using the RNeasy Micro Kit (QIAGEN). RNA was converted to cDNA using First-Strand Synthesis SuperMix for qRT-PCR (Invitrogen). PCR was carried out using Power SYBR® Green PCR Master Mix (Applied Biosystems) and performed on an MX3000P Sequence Detection System (Stratagene). The data were analyzed using the delta-delta Ct method.

In a further test the test system is HBV. Description: HBV infection of 5C-PHHs. In kind it is cell-based. Conditions: for HBV products (HBsAg, HBeAg, HBV RNA, HBV DNA, cccDNA) in infected 5C-PHHs: drug treatment of HBV infected 5C-PHHs.
For test [2], the system named is primary human hepatocytes (PHHs). The test can be described thus: PHH culture: morphology and survival. In kind it is cell-based. The protocol:
as §1, §2

Test [3] shares this test system. Description: RNA-Seq global gene expression profiling of cultured PHHs. It is filed as cell-based. Conditions: hierarchical clustering. An excerpt: Total RNA was isolated using the RNeasy Plus Mini Kit (QIAGEN). RNA sequencing libraries were constructed using the Illumina mRNA-Seq Prep Kit (Illumina). Fragmented and randomly primed 150 bp paired-end libraries were sequenced using Illumina HiSeq 4000. Software and algorithms used for transcriptome analysis are including Cutadapt 1.16 (http://cutadapt.readthedocs.io/en/stable/guide.html), Salmon 0.8.2 (https://combinelab. github.io/salmon/), and R 3.5.0 (https://www.r-project.org). The expression profiles of HepG2, F-PHHs-3 and F-PHHs-4 were downloaded as raw data. The expression profiles of PHH 0d, hiPSC-Hep rep1, hiPSC-Hep rep2, hiPSC-Hep rep3 and hiPSC-Hep rep4 (Gordillo, et al., Development, 142:2094-2108 (2015)) were downloaded as raw sequencing reads from GEO database (GSM2817112, GSM2753376, GSM2753377, GSM2753378, GSM2753379). To compare gene expression profile between paired-end and single end libraries, we used the read1 from our generated sequencing paired-end reads. The read1 and the downloaded single-end read were trimmed to the same 40 bp length by using Cut adapt. The expression values for each sample were quantified by Salmon. Unsupervised hierarchical clustering of RNA-Seq data was generated by hclust package in R.

The next test concerns HCV Jc1G. The test can be described thus: HCV infection of 5C-PHHs. Conditions: Gluc reporter and intracellular HCV RNA. It is filed as cell-based. The protocol: The Huh7.5 cell line was kindly provided by Professor Charles Rice and was routinely maintained in Dulbecco modified medium supplemented with 10% fetal bovine serum (Biological industries), 25 mM HEPES (Gibco) and Non-Essential Amino Acid (Gibco). For generating the cell cultured HCV, the plasmid encoding HCV Jc1FLAG2 (p7-nsGluc2A) (Jc1G in the text) was first linearized by XbaI digestion, and used as template for in-vitro-transcription by using MEGAscript (Invitrogen). HCVcc was generated as described previously by electroporation of the in-vitro-transcribed Jc1G RNA into Huh7.5 cells. Virus containing supernatants were harvested each day after 3 days post electroporation' and up to 7 days post electroporation. Supernatants were combined and the virus was concentrated by centrifugation using Amicon® Ultra-15 (100K) Centrifugal Filter Devices (Millipore) at 5000 g for 30 min at 4° C. The buffer was exchanged into PBS by repeated centrifugation with Amicon® Ultra-15. […]
For quantification of intracellular HCV RNA, cells were lysed in Trizol reagent (Invitrogen). […] The relative RNA levels were calculated using the 2-ΔΔCt method. […]
For quantification of luciferase activity, supernatants from each well were taken and mixed with equal volume of 2×passive lysis buffer (Promega). Luciferase activity was measured with Renilla luciferase substrate (Promega) according to manufacturer's protocol.

Test [4] concerns interferon-stimulated genes (ISGs). The test can be described thus: ISG expression in long-term cultured 5C-PHHs. In kind it is cell-based, human.

Consider `C[C@H](NC(=O)Cc1cc(F)cc(F)c1)C(=O)N[C@H](C(=O)OC(C)(C)C)c1ccccc1` [DAPT], for which the “expression of EMT marker genes (COL1A1; Thy1; VIM)” value in test [1] (added to SB43 and FSK combination) is “further blocked”. Besides, the “expression of mesenchymal marker gene COL1A1” value in test [1] (combined with SB43 and FSK, day 14, normalized to FSK+SB43) is given as “decreased”.
Turning to `Nc1ccn([C@@H]2CS[C@H](CO)O2)c(=O)n1` [LAM, lamivudine], the “HBV products (HBsAg, HBeAg, HBV RNA, HBV DNA, cccDNA) in infected 5C-PHHs” value (from here on “HBV products”) in the test with HBV is listed as “reduction of HBV products”.
Consider `NC(=O)c1ccc(-c2nc(-c3ccc4c(c3)OCO4)c(-c3ccccn3)[nH]2)cc1` [SB43, 4-[4-(1,3-benzodioxol-5-yl)-5-(2-pyridinyl)-1H-imidazol-2-yl]benzamide], for which the “epithelial morphology with the expression of E-cadherin” value in test [2] (SB43 treatment, after 2 weeks) is “maintained an epithelial morphology”. In test [1] (SB43 alone), the “expression of EMT-associated transcription factors SNAI2, TWIST1” value is recorded as “failed to suppress”. The “maintaining the functional state of PHHs” value in test [1] (blocking TGF-β signaling with SB43 alone) is on record as “limited effect”.
For the molecule `CCCC(=O)Nc1ncnc2c1ncn2[C@@H]1O[C@@H]2COP(=O)([O-])O[C@H]2[C@H]1OC(=O)CCC.[Na+]` [db-cAMP, Dibutyryl-cAMP, sodium salt], the “global gene expression of PHHs when FSK is substituted” value in test [3] is reported as “replaced FSK”.
For Daclatasvir [DCV], the “HCV viral replication in 5C-PHHs” value in the test on HCV Jc1G is listed as “effectively blocked”.
For Forskolin [FSK], in test [2] (combined with SB43), the PHH survival entry is given as “sustained PHH survival”. Besides, the “EMT marker gene expression α-smooth muscle actin (ASMA)” value in test [1] (combined with SB43, qRT-PCR at day 14) is listed as “down-regulated”.
Turning to entecavir [ETV], the “HBV products” value in the test with HBV is recorded as “reduction of HBV products”.
For interferon-α [IFN-α], in the test with HBV (cryopreserved PHHs cultured in 5C), the cccDNA entry is listed as “significant reduction”. In addition, the “HBV products” value in the test with HBV is “reduction of HBV products”. Also, the “interferon-stimulated genes (ISGs) expression” value in test [4] is reported as “significantly upregulated”.
